Earlier results in patent US20090155357A1, “Alcohol Resistant Pharmaceutical Formulations” (priority 2005, published 2009).

What was measured:
[1] = solubility in alcohol
[2] = solubility in water

Row | Compound | Alcohol [1] | Water [2]
1 | CCCCCCCCCCCCCCCCCC(=O)OCC(O)CO (stereo not shown) [Glyceryl Monostearate] | I | I
2 | CCCCCCCCCCCCCCCC(=O)OCC(O)CO (stereo not shown) [Glyceryl Palmitate] | I | I
3 | [O]=[Mg] [Magnesium Oxide] | I | I
4 | Dibasic/Tribasic calcium phosphate dihydrate | I | I
5 | Glyceryl Behanate | I | I
